Laboratory results as given in US11337976B2 (Plexxikon Inc., priority 2011, dated 2022).

test system: A375 melanoma cells (B-Raf V600E mutation); experiment: A375 (A375_P-ERK) cell activity / cell growth inhibition assay; format: cell-based, human; conditions: Homo sapiens, A-375; A375 cells (text: A375_P-ERK)
Experimental: Compounds are assessed in a variety of cell based assays. For example human cell lines with B-RafV600E mutation (A375 melanoma, SKMEL3 melanoma, and COLO205 colon adenocarcinoma), as well as tumorigenic cell lines with wild-type B-RAF (SW620 colon adenocarcinoma) or with Ras mutations (SKMEL2 melanoma and IPC298 melanoma).
On day 1, cells are counted, then centrifuged in a conical tube for 5 minutes at 1000 rpm.
On day 2, compound at a maximum concentration of 5 mM is serially diluted 1:3 (e.g. 10 μL with 30 μL dimethyl sulfoxide) for a total of 8 point titration with DMSO as a control. A 1 μL aliquot of each dilution point and control is added to 249 μL growth media and 50 μL is added to a well containing cells, providing 10 μM compound at the maximum concentration point. The cells are incubated for 3 days at 37° C. in 5% CO2.
ATPlite is added 25 μL to each well, shake for 2 minutes, and the cells are incubated at room temperature for 10 minutes, then luminescence is read on Safire reader. The measured luminescence correlates directly with cell number, such that the reading as a function of compound concentration is used to determine the IC50 value.

Row | Compound | IC50 [µM]
1 | CCN(C)S(=O)(=O)Nc1cccc(C(=O)c2c[nH]c3ncc(-c4cnc(C)nc4)cc23)c1F [P-0056, 3-[3-[[ethyl(methyl)sulfamoyl]amino]-2-fluoro-benzoyl]-5-(2-methylpyrimidin-5-yl)-1H-pyrrolo[2,3-b]pyridine] | < 1
2 | CC(C)(O)c1nc(-c2cnc3[nH]cc(C(=O)c4c(F)ccc(NS(=O)(=O)N5CCCC5)c4F)c3c2)cs1 [P-0265, N-[2,4-difluoro-3-[5-[2-(1-hydroxy-1-methyl-ethyl)thiazol-4-yl]-1H-pyrrolo[2,3-b]pyridine-3-carbonyl]phenyl]pyrrolidine-1-sulfonamide] | < 1
3 | COCCN(C)S(=O)(=O)Nc1cccc(C(=O)c2c[nH]c3ncc(-c4cnc(OC)nc4)cc23)c1F [P-0073, 3-[2-fluoro-3-[[2-methoxyethyl(methyl)sulfamoyl]amino]benzoyl]-5-(2-methoxypyrimidin-5-yl)-1H-pyrrolo[2,3-b]pyridine] | < 1
4 | CN(C1CC1)S(=O)(=O)Nc1ccc(F)c(C(=O)c2c[nH]c3ncc(-c4cnc(C5CC5)nc4)cc23)c1F [P-0252, 3-[3-[[cyclopropyl(methyl)sulfamoyl]amino]-2,6-difluoro-benzoyl]-5-(2-cyclopropylpyrimidin-5-yl)-1H-pyrrolo[2,3-b]pyridine] | < 1
5 | CCN(C)S(=O)(=O)Nc1ccc(F)c(C(=O)c2c[nH]c3ncc(-c4cnc(N5CCCC5)nc4)cc23)c1F [P-0293, 3-[3-[[ethyl(methyl)sulfamoyl]amino]-2,6-difluoro-benzoyl]-5-(2-pyrrolidin-1-ylpyrimidin-5-yl)-1H-pyrrolo[2,3-b]pyridine] | < 1
6 | CCN(C)S(=O)(=O)Nc1ccc(F)c(C(=O)c2c[nH]c3ncc(-c4ccnc(F)c4)cc23)c1F [P-0283, 3-[3-[[ethyl(methyl)sulfamoyl]amino]-2,6-difluoro-benzoyl]-5-(2-fluoro-4-pyridyl)-1H-pyrrolo[2,3-b]pyridine] | > 1
7 | O=C(c1cccc(NS(=O)(=O)N2CCCC2)c1F)c1c[nH]c2ncc(-c3ccc(F)cc3)cc12 [P-0062, N-[2-fluoro-3-[5-(4-fluorophenyl)-1H-pyrrolo[2,3-b]pyridine-3-carbonyl]phenyl]pyrrolidine-1-sulfonamide] | < 1
8 | CC1CCN(S(=O)(=O)Nc2cccc(C(=O)c3c[nH]c4ncc(-c5cnc(C6CC6)nc5)cc34)c2F)C1 (stereo not drawn) [P-0247, N-[3-[5-(2-cyclopropylpyrimidin-5-yl)-1H-pyrrolo[2,3-b]pyridine-3-carbonyl]-2-fluoro-phenyl]-3-methyl-pyrrolidine-1-sulfonamide] | < 1
9 | CN(C)S(=O)(=O)Nc1cccc(C(=O)c2c[nH]c3ncc(-c4ccc(C#N)nc4)cc23)c1F [P-0099, 5-(6-cyano-3-pyridyl)-3-[3-(dimethylsulfamoylamino)-2-fluoro-benzoyl]-1H-pyrrolo[2,3-b]pyridine] | < 1
10 | CCN(C)S(=O)(=O)Nc1cccc(C(=O)c2c[nH]c3ncc(-c4cnc(C#N)nc4)cc23)c1F [P-0100, 5-(2-cyanopyrimidin-5-yl)-3-[3-[[ethyl(methyl)sulfamoyl]amino]-2-fluoro-benzoyl]-1H-pyrrolo[2,3-b]pyridine] | < 1
11 | CCN(C)S(=O)(=O)Nc1ccc(F)c(C(=O)c2c[nH]c3ncc(-c4cnc(N5CCC5)nc4)cc23)c1F [P-0277, 5-[2-(azetidin-1-yl)pyrimidin-5-yl]-3-[3-[[ethyl(methyl)sulfamoyl]amino]-2,6-difluoro-benzoyl]-1H-pyrrolo[2,3-b]pyridine] | < 1
12 | O=C(c1c(F)ccc(NS(=O)(=O)N2CCCC2)c1F)c1c[nH]c2ncc(-c3cc(N4CCOCC4)ncn3)cc12 [P-0318, N-[2,4-difluoro-3-[5-(6-morpholinopyrimidin-4-yl)-1H-pyrrolo[2,3-b]pyridine-3-carbonyl]phenyl]pyrrolidine-1-sulfonamide] | < 1
13 | CCN(C)S(=O)(=O)Nc1ccc(F)c(C(=O)c2c[nH]c3ncc(-c4ccc(-c5noc(C)n5)s4)cc23)c1F [P-0310, 3-[5-[3-[3-[[ethyl(methyl)sulfamoyl]amino]-2,6-difluoro-benzoyl]-1H-pyrrolo[2,3-b]pyridin-5-yl]-2-thienyl]-5-methyl-1,2,4-oxadiazole] | < 1
14 | N#Cc1ccc(-c2cnc3[nH]cc(C(=O)c4cccc(NS(=O)(=O)N5CCCC5)c4F)c3c2)cn1 [P-0094, N-[3-[5-(6-cyano-3-pyridyl)-1H-pyrrolo[2,3-b]pyridine-3-carbonyl]-2-fluoro-phenyl]pyrrolidine-1-sulfonamide] | < 1
15 | O=C(c1c(F)ccc(NS(=O)(=O)N2CCCC2)c1F)c1c[nH]c2ncc(-c3cnc(N4CCC4)nc3)cc12 [P-0269, N-[3-[5-[2-(azetidin-1-yl)pyrimidin-5-yl]-1H-pyrrolo[2,3-b]pyridine-3-carbonyl]-2,4-difluoro-phenyl]pyrrolidine-1-sulfonamide] | < 1
16 | NC(=O)C1(c2ccc(-c3cnc4[nH]cc(C(=O)c5cccc(NS(=O)(=O)N6CCCC6)c5F)c4c3)cc2)CC1 [P-0253, 1-[4-[3-[2-fluoro-3-(pyrrolidin-1-ylsulfonylamino)benzoyl]-1H-pyrrolo[2,3-b]pyridin-5-yl]phenyl]cyclopropanecarboxamide] | > 1
17 | O=C(c1c(F)ccc(NS(=O)(=O)N2CCCC2)c1F)c1c[nH]c2ncc(-c3ccnc(C4CC4)c3)cc12 [P-0295, N-[3-[5-(2-cyclopropyl-4-pyridyl)-1H-pyrrolo[2,3-b]pyridine-3-carbonyl]-2,4-difluoro-phenyl]pyrrolidine-1-sulfonamide] | < 1
18 | CCCNS(=O)(=O)Nc1cccc(C(=O)c2c[nH]c3ncc(-c4cnc(C5CC5)nc4)cc23)c1F [P-0251, [5-(2-cyclopropylpyrimidin-5-yl)-1H-pyrrolo[2,3-b]pyridin-3-yl]-[2-fluoro-3-(propylsulfamoylamino)phenyl]methanone] | > 1
19 | CN(C)c1ncc(-c2cnc3[nH]cc(C(=O)c4cccc(NS(=O)(=O)N(C)C)c4F)c3c2)cn1 [P-0106, 5-[2-(dimethylamino)pyrimidin-5-yl]-3-[3-(dimethylsulfamoylamino)-2-fluoro-benzoyl]-1H-pyrrolo[2,3-b]pyridine] | < 1
20 | Cc1ncc(-c2cnc3[nH]cc(C(=O)c4cccc(NS(=O)(=O)N5CCCC5)c4F)c3c2)cn1 [P-0092, N-[2-fluoro-3-[5-(2-methylpyrimidin-5-yl)-1H-pyrrolo[2,3-b]pyridine-3-carbonyl]phenyl]pyrrolidine-1-sulfonamide] | < 1
21 | CCC(C)S(=O)(=O)Nc1cccc(C(=O)c2c[nH]c3ncc(-c4ccc(C5(C#N)CC5)cc4)cc23)c1F (stereo not drawn) [P-0227, N-[3-[5-[4-(1-cyanocyclopropyl)phenyl]-1H-pyrrolo[2,3-b]pyridine-3-carbonyl]-2-fluoro-phenyl]butane-2-sulfonamide] | < 1
22 | CN(C)S(=O)(=O)Nc1cccc(C(=O)c2c[nH]c3ncc(I)cc23)c1F [P-0110, 3-[3-(dimethylsulfamoylamino)-2-fluoro-benzoyl]-5-iodo-1H-pyrrolo[2,3-b]pyridine] | < 1
23 | O=C(c1c(F)ccc(NS(=O)(=O)N2CCCC2)c1F)c1c[nH]c2ncc(-c3ccncc3)cc12 [P-0273, N-[2,4-difluoro-3-[5-(4-pyridyl)-1H-pyrrolo[2,3-b]pyridine-3-carbonyl]phenyl]pyrrolidine-1-sulfonamide] | < 1
24 | CCN(C)S(=O)(=O)Nc1cccc(C(=O)c2c[nH]c3ncc(-c4cnc(NC5CC5)nc4)cc23)c1F [P-0077, 5-[2-(cyclopropylamino)pyrimidin-5-yl]-3-[3-[[ethyl(methyl)sulfamoyl]amino]-2-fluoro-benzoyl]-1H-pyrrolo[2,3-b]pyridine] | < 1
25 | CCN(C)S(=O)(=O)Nc1cccc(C(=O)c2c[nH]c3ncc(-c4cnc(C(C)C)nc4)cc23)c1F [P-0057, 3-[3-[[ethyl(methyl)sulfamoyl]amino]-2-fluoro-benzoyl]-5-(2-isopropylpyrimidin-5-yl)-1H-pyrrolo[2,3-b]pyridine] | < 1
26 | N#Cc1ccc(-c2cnc3[nH]cc(C(=O)c4cccc(NS(=O)(=O)N5CCCC5)c4F)c3c2)cc1 [P-0090, N-[3-[5-(4-cyanophenyl)-1H-pyrrolo[2,3-b]pyridine-3-carbonyl]-2-fluoro-phenyl]pyrrolidine-1-sulfonamide] | < 1
27 | CCCN(C)S(=O)(=O)Nc1cccc(C(=O)c2c[nH]c3ncc(-c4cnc(OC)nc4)cc23)c1F [P-0040, 3-[2-fluoro-3-[[methyl(propyl)sulfamoyl]amino]benzoyl]-5-(2-methoxypyrimidin-5-yl)-1H-pyrrolo[2,3-b]pyridine] | < 1
28 | O=C(c1c(F)ccc(NS(=O)(=O)N2CCCC2)c1F)c1c[nH]c2ncc(-c3ccnc(N4CCOCC4)n3)cc12 [P-0282, N-[2,4-difluoro-3-[5-(2-morpholinopyrimidin-4-yl)-1H-pyrrolo[2,3-b]pyridine-3-carbonyl]phenyl]pyrrolidine-1-sulfonamide] | < 1
29 | COc1cc(-c2cnc3[nH]cc(C(=O)c4c(F)ccc(NS(=O)(=O)N5CCCC5)c4F)c3c2)ccn1 [P-0287, N-[2,4-difluoro-3-[5-(2-methoxy-4-pyridyl)-1H-pyrrolo[2,3-b]pyridine-3-carbonyl]phenyl]pyrrolidine-1-sulfonamide] | < 1
30 | CCN(C)S(=O)(=O)Nc1ccc(F)c(C(=O)c2c[nH]c3ncc(-c4cnc(N5CCN(C)CC5)nc4)cc23)c1F [P-0263, 3-[3-[[ethyl(methyl)sulfamoyl]amino]-2,6-difluoro-benzoyl]-5-[2-(4-methylpiperazin-1-yl)pyrimidin-5-yl]-1H-pyrrolo[2,3-b]pyridine] | < 1
